Values joined by “and” are separate entries in the source; they are usually repeats but may differ in a detail not shown here. Identical values can stand only once.
Assays:
E. coli [1] = test: Inhibitory effect of EGCg on biofilm formation on polyurethane discs (static, plate count); type: cell-based; details: E. coli 2×10^3 CFU/ml, 37 degrees Celsius, 24 hours, listed as epigallocatechin gallate (EGCg)
Experimental: 8 mm diameter disc shaped polyurethanes were cultured with an E. coli suspension (2×10^3 CFU/ml) which was mixed with various concentrations of epigallocatechin gallate (EGCg) (0-0.2 mM) under a static condition at 37 degrees Celsius for 24 hours in a culture plate. After incubations, the polyurethane discs were taken out, and having been washed in a phosphate buffer gently, they were moved to a 2 ml phosphate buffer, where they were sonicated to detach the adhered E. coli. Viable E. coli cell counts in the liquid were calculated by the plate count method.

E. coli in biofilm = test: Effect of EGCg on living microbes after biofilm formation; type: cell-based; details: 24 hours biofilm, then 24 hours exposure; listed as epigallocatechin gallate (EGCg)
Experimental: Biofilms were formed on polyurethane surfaces after incubating 8 mm diameter polyurethane discs placed in a culture plate with an E. coli suspension (2×10^3 CFU/ml) under a static condition at 37 degrees Celsius for 24 hours. After adding solutions with various degrees of epigallocatechin gallate (EGCg) concentration (0-50 mM) to the biofilm surfaces that were formed, they were exposed for another 24 hours. After the polyurethane discs were taken out, and washed with a phosphate buffer solution gently, they were moved to a 2 ml phosphate buffer solution and sonicated to detach adhered E. coli. Viable E. coli cell count in this liquid was counted by the plate count method. […] These levels of concentration are much higher compared to the Example 1 where catechin was placed from the beginning of incubation.

E. coli [2] = test: Sensitivity of E. coli to EGCg (dilution method, MIC); type: cell-based; details: E. coli 1×10^7 CFU/ml, 37 degrees Celsius, 24 hours, static
Experimental: Sensitivity of E. coli to EGCg was examined by a general sensibility test method (dilution method). E. coli suspensions (1×10^7 CFU/ml), in which gradually diluted (0.16, 0.31, 0.63, 1.25, 2.5, 5.0 mM) epigallocatechin gallate (EGCg) solutions were mixed, were placed in a culture plate and incubated at 37 degrees Celsius for 24 hours under a static condition. Minimal inhibitory concentration (MIC) was defined as the smallest EGCg concentration in which no bacteria growth is recognized macroscopically.

E. coli [3] = details: comparison among catechins; cited from earlier work
[4] = high dosage long-term oral administration; cited from earlier work

O=C(O[C@@H]1Cc2c(O)cc(O)cc2O[C@@H]1c1cc(O)c(O)c(O)c1)c1cc(O)c(O)c(O)c1 [EGCg, epigallocatechin gallate]
concentration at which biofilm formation is inhibited completely (E. coli [1]): ≥ 0.15 mM and ≥ 0.069 mg/ml | concentration at which biofilm formation is inhibited significantly (E. coli [1]): ≥ 0.12 mM and ≥ 0.055 mg/ml | concentration at which E. coli in biofilm were exterminated completely (E. coli in biofilm): 50 mM and 23 mg/ml | concentration at which viable cell counts in formed biofilm decreased significantly (E. coli in biofilm): ≥ 8 mM and ≥ 3.7 mg/ml | minimal inhibitory concentration (MIC) (E. coli [2]): 0.63 mM and 287 μg/ml | antibacterial action / minimal inhibitory concentration against E. coli, among the catechins (E. coli [3]): smallest minimal inhibitory concentration against E. coli | side effects / safety to the human body [4]: no side effect has been reported
